In one experiment the target is T1, α-synuclein (Homo sapiens, UniProt P37840).
T1 construct: purchased Sino Biological
The experiment in a line: Detection of the ability of compounds to inhibit α-synuclein self-aggregation by HPLC. Format: biochemical. Particulars: test compound 200 μg/mL, α-synuclein 250 μg/ml, 37° C., 9 days; HPLC peak area of α-synuclein multimers vs model group. How it is done:
The test compound (for poorly soluble compounds, dissolve with an appropriate amount of DMSO first) and fresh α-synuclein monomers (purchased from Sino Biological) were added to pure water to a final protein concentration of 250 μg/ml, and the concentration of the test compound was 200 μg/mL, followed by incubation at 37° C. for 9 days. The peak area of α-synuclein multimers after incubation was detected by HPLC and the inhibition rate was calculated. […] Inhibition rate=(peak area of model group−peak area of example group)/peak area of model group×100%.
As to `CCCCC(Cc1c[nH]c2ccccc12)NC(=O)c1cc2ccc(N3CCN(C)CC3)cc2o1` (stereo not shown) [Example 27, N-(1-(1H-indole-3-yl)hexan-2-yl)-6-(4-methylpiperazine-1-yl) benzofuran-2-carboxamide], the “inhibition rate (%)” value worked out at 87.6%.

The same experiment, now with this note: test compound 200 μg/mL, α-synuclein 250 μg/ml, 37° C., 9 days; HPLC peak area of α-synuclein multimers vs model group; read-out: inhibition rate (%).
In the case of `CCCCC(Cc1c[nH]c2ccccc12)NC(=O)c1cc2cc(F)c(N3CCN(C)CC3)cc2s1` (stereo not shown) [Example 5, N-(1-(1H-indol-3-yl)hexane-2-yl)-5-fluoro-6-(4-methylpiperazin-1-yl) benzo[b]thiophene-2-carboxamide], the inhibition – broadly, the relative decrease from the control value, in per cent – at 200 µg/mL was 98.6%.

For the compound `CCCCC(Cc1c[nH]c2ccccc12)NC(=O)c1cc2cccc(N3CCN(C)CC3)c2s1` (stereo not shown) [Example 10, N-(1-(1H-indol-3-yl)hexane-2-yl)-7-(4-methylpiperazin-1-yl) benzo[b]thiophene-2-carboxamide], the inhibition at 200 µg/mL stood at 73.1%.

For `COCCC(Cc1c[nH]c2ccccc12)NC(=O)c1cc2ccc(N3CCN(C)CC3)cc2s1` (stereo not shown) [Example 34, N-[1-(CH-indol-3-yl)-4-methoxybutyl-2-yl]-6-(4-methylpiperazin-1-yl)-1-benzothiophene-2-carboxamide], the inhibition at 200 µg/mL is 97.5%.

In the case of `C/C=C\CC(Cc1c[nH]c2ccccc12)NC(=O)c1cc2ccc(N3CCN(C)CC3)cc2s1` (stereo not shown) [Example 35, (Z)—N-(1-(1H-indol-3-yl)-4-hexene-2-yl)-6-(4-methylpiperazin-1-yl) benzo[b]thiophene-2-carboxamide], the inhibition at 200 µg/mL worked out at 85.4%.

Regarding `CCCCC(Cc1c[nH]c2ccccc12)NC(=O)c1cc2c(F)cc(N3CCN(C)CC3)cc2s1` (stereo not shown) [Example 6, N-(1-(1H-indol-3-yl)hexane-2-yl)-4-fluoro-6-(4-methylpiperazin-1-yl) benzo[b]thiophene-2-carboxamide], the inhibition at 200 µg/mL worked out at 97.8%.

For the compound `CCCCC(Cc1c[nH]c2ccccc12)NC(=O)c1sc2cc(N3CCN(C)CC3)ccc2c1C` (stereo not shown) [Example 11, N-(1-(1H-indol-3-yl)hexane-2-yl)-3-methyl-6-(4-methylpiperazin-1-yl) benzo[b]thiophene-2-carboxamide], the inhibition at 200 µg/mL was found to be 73.4%.

Turning to `CCCCC(Cc1c[nH]c2ccccc12)NC(=O)c1cc2ccc(N3CCN(C)C(=O)C3)cc2s1` (stereo not shown) [Example 46, N-[1-(1H-indol-3-yl)hexane-2-yl]-6-(4-methyl-3-oxopiperazin-1-yl)-benzothiophene-2-carboxamide], the inhibition at 200 µg/mL was determined as 78.9%.

For `CCCCC(Cc1c[nH]c2ccccc12)NC(=O)c1cc2ccc(N3CCN(C(C)C)CC3)cc2s1` (stereo not shown) [Example 13, N-(1-(1H-indol-3-yl)hexane-2-yl)-6-(4-isopropylpiperazin-1-yl) benzo[b]thiophene-2-carboxamide], the inhibition at 200 µg/mL stood at 94.4%.

Regarding `CCCCC(Cc1c[nH]c2ccccc12)NC(=O)c1cc2ccc(N3CCN(C)CC3)nc2s1` (stereo not shown) [Example 2, N-[1-(1H-indol-3-yl)hexyl-2-yl]-6-(4-methylpiperazin-1-yl) thiophene[2,3-b]pyridine-2-carboxamide], the inhibition at 200 µg/mL came to 86.8%.

Consider `CCCCC(Cc1c[nH]c2ccccc12)NC(=O)c1cc2ccc(N3CCC4(CC3)COC4)cc2s1` (stereo not shown) [Example 20, N-[1-(1H-indol-3-yl)hexane-2-yl]-6-(2-oxa-7-azaspiro [3.5]nonan-7-yl)-1-benzothiophene-2-carboxamide], for which the inhibition at 200 µg/mL was 95.6%.

Turning to `CCCCC(Cc1c[nH]c2ccncc12)NC(=O)c1cc2ccc(N3CCN(C)CC3)cc2s1` (stereo not shown) [Example 31, N-(1-(1H-pyrrole[3,2-c]pyridin-3-yl)hexane-2-yl)-6-(4-methylpiperazine-1-yl) benzo[b]thiophene-2-carboxamide], the inhibition at 200 µg/mL was 95.3%.

For `CCCCC(Cc1c[nH]c2ccccc12)NC(=O)c1cc2cnc(N3CCN(C)CC3)cc2s1` (stereo not shown) [Example 8, N-(1-(1H-indol-3-yl)hexane-2-yl)-6-(4-methylpiperazin-1-yl) thieno[3,2-c] pyridine-2-carboxamide], the inhibition at 200 µg/mL came out at 73.7%.

Take `CCCCC(Cc1c[nH]c2ccccc12)NC(=O)c1cc2ccc(N3CCC(C)(C)CC3)cc2s1` (stereo not shown) [Example 16, N-(1-(1H-indol-3-yl)hexane-2-yl)-6-(4,4-dimethylpiperidin-1-yl) benzo[b]thiobene-2-carboxamide]: the inhibition at 200 µg/mL was found to be 96.3%.

Turning to `CCCCC(Cc1c[nH]c2ccccc12)NC(=O)c1cc2ccc(N3CCC(O)CC3)cc2s1` (stereo not shown) [Example 19, N-(1-(1H-indol-3-yl)hexane-2-yl)-6-(4-hydroxypiperidin-1-yl) benzo[b]thiophene-2-carboxamide], the inhibition at 200 µg/mL is 93.5%.

Regarding `CC(C)/C=C/C(Cc1c[nH]c2ccccc12)NC(=O)c1cc2ccc(N3CCN(C)CC3)cc2s1` (stereo not shown) [Example 40, (E)-N-(1-(1H-indol-3-yl)-S-methyl-3-hexene-2-yl)-6-(4-methylpiperazin-yl) benzo[b]-thiophene-2-carboxamide], the inhibition at 200 µg/mL came to 76.8%.

As to `CCCCC(Cc1c[nH]c2ccccc12)NC(=O)c1cc2ccc(N3CCN(c4ccccc4)CC3)cc2s1` (stereo not shown) [Example 14, N-(1-(1H-indol-3-yl)hexane-2-yl)-6-(4-phenylpiperazine-1-yl) benzo[b]thiobene-2-carboxamide], the inhibition at 200 µg/mL amounted to 73.5%.

`CCCCC(Cc1c[nH]c2ccccc12)NC(=O)c1cc2ccc(N3CCN(S(C)(=O)=O)CC3)cc2s1` (stereo not shown) [Example 45, N-[1-(1H-indol-3-yl)hexane-2-yl]-6-(4-methylsulfonylpiperazine-1-yl)-benzothiophene-2-carboxamide]: the inhibition at 200 µg/mL came to 82.3%.

Regarding `CCCCC(Cc1c[nH]c2ccccc12)NC(=O)c1cc2ccc(N3CCC4(CC3)CN(C3CCN(C)CC3)C4)cc2s1` (stereo not shown) [Example 21], the inhibition at 200 µg/mL stood at 78.2%.

Consider `CCCCC(Cc1c[nH]c2ccccc12)NC(=O)c1cc2cnc(N3CCN(C)CC3)nc2s1` (stereo not shown) [Example 29, N-(1-(1H-indole-3-yl)hexane-2-yl)-2-(4-methylpiperazine-1-yl) thieno [2,3-d]pyrimidine-6-carboxamide], for which the inhibition at 200 µg/mL is 96.7%.

For `CC(C)CCC(Cc1c[nH]c2ccccc12)NC(=O)c1cc2ccc(N3CCN(C)CC3)cc2s1` (stereo not shown) [Example 33, N-(1-(1H-indol-3-yl)-5-methylhexane-2-yl)-6-(4-methylpiperazin-1-yl) benzo[b]thiophene-2-carboxamide], the inhibition at 200 µg/mL turned out to be 93.4%.

In the case of `CCCCC(Cc1c[nH]c2ccccc12)NC(=O)c1cc2ccc(N3CC(C)(O)C3)cc2s1` (stereo not shown) [Example 49, N-(1-(1H-indol-3-yl)hexane-2-yl)-6-(3-hydroxy-3-methylazetidine-1-yl) benzo[b]-thiophene-2-carboxamide], the inhibition at 200 µg/mL came out at 92.9%.
